Laboratory results from patent US11319311B2, “Crystalline forms of Actinomycin D for treatment of cancer” (TRANSGENEX NANOBIOTECH, INC., priority 2018, dated 2022).
Read-outs that look alike come from different tables or passages of the source.

Tests used:
H460 = experiment: Monolayer cell culture IC50 (CellTiter-Glo viability), H460; format: cell-based; conditions: Lung, 72 hours treatment, average of three replications
Protocol: (§1) Cancer cell lines listed in Table 1 were subjected for testing anti-cancer potency or the half maximal inhibitory concentration (IC50) of the D-Actinomycin (DACT) molecular complexes.
(§2) The SK-ES-1, U-2 OS, and SAOS-2 cells were cultured in a growth medium that is ATCC-formulated McCoy's 5a Medium Modified, Catalog No. 30-2007. The PC-3, PANC-1, SK-Mel-5, A549, H460, and H1299 were cultured in a growth medium that is ATCC-formulated Dulbecco's Modified Eagle's Medium (DMEM), Catalog No. 30-2002. The cells were seeded on 96-well microtiter plates with 3500 cells per well and cultured in an incubator (Model 3120, Thermo Scientific, USA) with a constant temperature at 37° C. and 5% carbon dioxide (CO2) gas for 24 hours.
(§3) The new DACT-molecular complexes were made into a series with concentration of 200 nM to 40 nM, 8 nM, 1.6 nM, 0.32 nM, and 0.064 nM. 100 μl of each solution was then added into each well to bring out the final concentration of the drug treatment at 100 nM, 20 nM, 4 nM, 0.8 nM, 0.16 nM, or 0.032 nM, respectively.
(§4) The treated cells in the 96 well plate was then further cultured at the same conditions for 72 hours and then subjected for a final cell viability measurement. The measurement used a homogeneous method to determine the number of metabolically active cells presented in each of treatments. A testing reagent for the measurement is a mixture solution of the CellTiter-Glo® 2.0 reagent (CTG, Promega Cat #G9243, USA) and growth medium in 1:1 ratio in this respect.
(§5) The 96-well plate with the new molecular complex treated cells was taken out from incubator after the 72 hours of incubation, and the treatment solution in each well was removed using a multichannel pipette, and 100 μl of the testing reagent were added into each well. The plate was then placed on a plate shaker for 15 min. The plate was covered with a piece of aluminum foil to protect the CTG luminescence during the shaking time.
(§6) Then 90 μl of the 100 μl testing reagent were transferred into an opaque-walled 96-well plate for the CTG luminescence reading on a plate reader (SynergyH4 Hybrid Reader, Biotek, USA). The luminescence intensity of each treatment was positively correlated with the number of cells survived during the treatments.
(§7) All the treatment data was normalized by comparing with the control samples that had only growth medium without any molecular complexes. The half maximal inhibitory concentration (IC50) data was calculated using the nonlinear regression model and dose-responses (inhibition) curve built in the software. Each of treatments was performed in three replications each time and repeated three times for validation. The IC50 average […] (Avg) and standard deviation (STDV) were calculated based on the three replications.

SK-Mel-5 = experiment: Monolayer cell culture IC50 (CellTiter-Glo viability), SK-Mel-5; format: cell-based; conditions: Skin, SK-Mel-5, monolayer, 72 hours treatment, average of three replications
Protocol: as §1, §2, §3, §4, §5, §6, §7

A549 = experiment: Monolayer cell culture IC50 (CellTiter-Glo viability), A549; format: cell-based; conditions: Lung, 72 hours treatment, average of three replications
Protocol: as §1, §2, §3, §4, §5, §6, §7

U-2 OS = experiment: Monolayer cell culture IC50 (CellTiter-Glo viability), U-2 OS; format: cell-based; conditions: Sarcoma, U-2 OS, monolayer, 72 hours treatment, average of three replications
Protocol: as §1, §2, §3, §4, §5, §6, §7

SK-ES-1 = experiment: Monolayer cell culture IC50 (CellTiter-Glo viability), SK-ES-1; format: cell-based, human; conditions: Sarcoma, SK-ES-1, monolayer, 72 hours treatment, average of three replications
Protocol: as §1, §2, §3, §4, §5, §6, §7

H1299 = experiment: Monolayer cell culture IC50 (CellTiter-Glo viability), H1299; format: cell-based; conditions: Lung, 72 hours treatment, average of three replications
Protocol: as §1, §2, §3, §4, §5, §6, §7

PC-3 = experiment: Monolayer cell culture IC50 (CellTiter-Glo viability), PC-3; format: cell-based; conditions: Prostate, PC-3, monolayer, 72 hours treatment, average of three replications
Protocol: as §1, §2, §3, §4, §5, §6, §7

[1] = Test I, read-out: IC50 Test (I) Avg
[2] = Test II, read-out: IC50 Test (II) Avg
[3] = Test III, read-out: IC50 Test (III) Avg

Compound: CCCOC(=O)c1ccc(O)cc1.Cc1c2oc3c(C)ccc(C(=O)NC4C(=O)NC(C(C)C)C(=O)N5CCCC5C(=O)N(C)CC(=O)N(C)C(C(C)C)C(=O)OC4C)c3nc-2c(C(=O)NC2C(=O)NC(C(C)C)C(=O)N3CCCC3C(=O)N(C)CC(=O)N(C)C(C(C)C)C(=O)OC2C)c(N)c1=O (stereo not drawn) [DACT-propylparaben]
- IC50 (H460; [1]): 0.21 nM
- IC50 (H460; [2]): 0.3 nM
- IC50 (H460; [3]): 0.15 nM
- IC50 (SK-Mel-5; [1]): 0.39 nM
- IC50 (SK-Mel-5; [2]): 0.27 nM
- IC50 (SK-Mel-5; [3]): 2.59 nM
- IC50 (A549; [1]): 1.39 nM
- IC50 (A549; [2]): 1.74 nM
- IC50 (A549; [3]): 1.63 nM
- IC50 (U-2 OS; [1]): 3.63 nM
- IC50 (U-2 OS; [2]): 3.85 nM
- IC50 (U-2 OS; [3]): 1.79 nM
- IC50 (SK-ES-1; [1]): 0.76 nM
- IC50 (SK-ES-1; [2]): 0.34 nM
- IC50 (SK-ES-1; [3]): 0.49 nM
- IC50 (H1299; [1]): 1.48 nM
- IC50 (H1299; [2]): 0.96 nM
- IC50 (H1299; [3]): 1.05 nM
- IC50 (PC-3; [1]): 7.68 nM
- IC50 (PC-3; [2]): 4.52 nM
- IC50 (PC-3; [3]): 6.34 nM
